From patent publication US20180327364A1, “MTOR INHIBITORS AND METHODS OF USE THEREOF” (Brandeis University, priority 2015, published 2018) come the findings set out here.

Common to all, as to type: cell-based
Series [1] relates to K562, BaF3/p210, and HEK-293T cells. Description: LDH release cytotoxicity assay. Conditions: 4 and 48 h. The method, then:
To determine cellular growth, CellTiter-Glo luminescent cell viability assay (Promega) was used per the manufacturer's instruction. To determine cytotoxicity, LDH release was measured with the LDH Cytotoxicity Assay Kit (Pierce) according to the manufacture's protocol. For 4 h assays, 96 well plates were seeded at 75,000 cells/mL for BaF3/p210 cells or K562 cells. For HEK-293T cells, 10,000 cells/well were plated 24 h before treatment. Cells were treated for 4 h at 37° C. and […] was removed from every well and used in the LDH Cytotoxicity assay per the manufacturer's protocol. For 48 h assays, 7,500 cells/mL of BaF3/p210 or K562 cells were incubated with compound at 37° C. for 48 h (200 μL/well). For HEK-293T cells, 1,000 cells/well were plated 24 h prior to compound treatment. After treatment, 50 μL was removed from each well for the LDH assay for all cell lines and 100 μL of mixed cells were removed and used with the CellTiter-Glo kit for K562 and BaF3/p210 cells. For HEK-293T cells, wells were treated directed with the CellTiter-Glo kit. Cytotoxicity or viability was measured by luminosity and absorbance on a microplate reader.
For orientation: LDH leaks from cells whose membrane has failed.

The test system of series [2] is firefly luciferase. Description: Luciferase assay in stably transduced luciferase HEK-293T cells. The method, then: Firefly luciferase and firefly luciferase-eDHFR were cloned into pBABE-puro vector which was a gift from Hartmut Land & Jay Morgenstern & Bob Weinberg (Addgene plasmid #1764). pBABE-puro-luciferase was co-transfected with VSV-G into GP2-293 cells (Retro-X Universal Packaging System, Clonetech, Mountain View, Calif.) with TransIT-2020 (MirusBio) according to TransIT-2020's manufacture's protocol. After 48 h, viral supernatant was harvested, spun down, filtered with a […] syringe filter, and added to HEK-293T supplemented with 8 μg/mL polybrene. After 4 h of infection, the media was replaced with fresh media. 48 h later, media was replaced with media containing 3 μg/mL puromycin. Media was replaced with fresh media containing puromycin every 3-4 days. After 2 weeks of puromycin selection, the cells were grown out from single cell colonies and screened for luciferase expression.
Stably transduced luciferase HEK-293T cells were plated in 96-well plates 24 h prior to treatment with 100 μM of Cbz-B3A, amine-B3A, acetyl-B3A, and Cbz-acetyl. After 4 h, cells were harvested and measured with Luciferase Assay System with Reporter Lysis Buffer from Promega according to the manufacturer's protocol. Before the addition of luciferin, protein concentration was measured by removing 2 μl of lysate from each well and adding it to diluted Bio-Rad Protein Assay Dye Reagent Concentrate, and the absorbance was measured at OD595. The protein concentration was used to normalize luciferase signal. For translation assays, cells were pretreated for 15 min with 100 μg/mL cycloheximide or 6 μM bortezomib. For the recombinant luciferase assay, Quantilum Recombinant Luciferase (Promega) was diluted 1:250,000 in reporter lysis buffer with 1 mg/mL BSA then mixed 1:1 with 200 μM compound in the same buffer for a final dilution of 1:500,000 and 100 μM compound in 20 μL. This was incubated for 10 min at room temperature then measured with Luciferase Assay System with Reporter Lysis Buffer from Promega according to the manufacturer's protocol.

In series [3] the test system is protein translation in HEK-293T cells. In words: 35S-methionine/cysteine incorporation translation assay. Conditions: Homo sapiens, HEK-293T, 4 h treatment then 1 h labeling. The method, then:
80,000 cells/well of HEK-293T cells were plated into 24 well plates 24 h before the assay. Cells were treated with indicated concentration of compound for 4 h. After 4 h, the media was removed and replaced with DMEM without methionine and cysteine (Lifetechnologies) supplemented with 0.2 mCi/mL EXPRESS [^35S] protein labeling mix (PerkinElmer), 10% dialyzed FBS (Pierce), 1× glutaMax (Gibco), 100 U/mL penicillin 100 μg/mL streptomycin (Gibco), 1 mM sodium pyruvate (Lifetechnologies), and the indicated concentration of compound. After 1 h, this media was removed, cells were washed with ice cold PBS, and lysed with low deoxycholate RIPA buffer (10 mM Tris-Cl, 1% NP-40, 0.5% Na Deoxycholate, 0.1% SDS, 140 mM NaCl, 1 mM EDTA, 500 μM EGTA, 1× Roche Complete protease inhibitors, 1:100 Benzonase, and at pH 8.0). Lysate was centrifuged at maximum speed for 20 m at 4° C. The concentration was measured by Bradford assay. 10 μg of lysate was added to […] ice cold 1 mg/mL BSA with 0.02% Na Azide. 1 mL of ice cold 10% TCA was added, the solutions were mixed and incubated on ice for 0.5 h. These mixtures were vacuum filtered onto GF/C Whatman glass microfiber filters. The filters were washed with 2×5 mL of 10% TCA, then 2×3 mL ethanol. The filters were then dried for a 0.5 h. The filters were placed into scintillation vials with 5 mL of scintillation fluid and read on a scintillation counter.

Series [4] deals with eIF2α. Description: eIF2α phosphorylation immunoblot in HEK-293T cells. Conditions: 1 h; tunicamycin 5 μg/mL, thapsigargin 500 nM; compared with vehicle. The method, then:
(§1) Quantification of western blots was performed with ImageJ. Cells were lysed in RIPA buffer (1% NP-40, 1% NaDeoxycholate, 0.1% SDS, 10 mM TrisCl, 10 mM β-glycerophosphate, 10 mM Na pyrophosphate, 50 mM NaF, 200 μM Na vanadate, 1 mM EDTA, 500 μM EGTA, 1% benzonase, and supplemented with complete (Roche Diagnostics) protease inhibitors).
For orientation: A western blot detects proteins with antibodies after separation by electrophoresis.

The subject of series [5] is Rheb. In words: Rheb level immunoblot in HEK-293T cells. To be noted: 10 μM, 4 h; p=0.04 vs DMSO. The method, then: as §1
Series [6] concerns 4EBP1 phosphorylation by mTORC1. In words: 4EBP1 phosphorylation immunoblot in HEK-293T cells. Conditions: 4 h. The method, then: as §1

Consider `CC(C)(C)OC(=O)/N=C(\NCCC[C@H](NC(=O)OC(C)(C)C)C(=O)NCCCCCCNC(=O)OCc1ccccc1)NC(=O)OC(C)(C)C` [Cbz-B3A], for which, in series [1], the “cytotoxicity by release of lactate dehydrogenase” value was “not cytotoxic”. Further, the “firefly luciferase signal, co-treatment with bortezomib compared to bortezomib alone” value in series [2] (6 μM bortezomib pretreatment 15 min, then 100 μM Cbz-B3A 4 h) is “decreased”. For the same molecule, in series [2] (100 μg/mL cycloheximide pretreatment 15 min, then 100 μM Cbz-B3A 4 h), the “luciferase activity, co-treatment with cycloheximide” value is “no further decrease in luciferase activity”. The “wild type luciferase signal” value in series [2] (HEK-293T cells expressing HA-luciferase, 100 μM, 4 h) is reported as “decreased the wild type luciferase signal”. Besides, the EC50 in series [3] (read-out: EC50 of inhibition of 35S-methionine/cysteine incorporation) was ~3000 nM; in series [6] (Homo sapiens, HEK-293T, read-out: EC50 of inhibition of 4EBP1 phosphorylation), ~2000 nM. Also, the inhibition at 10 µM in series [3] (saturating concentration (Cbz-B3A 10 μM), read-out: maximal inhibition of translation (35S-methionine/cysteine incorporation)) came to 68%. The eIF2α phosphorylation entry in series [4] was “no increase in eIF2α phosphorylation”. In addition, the “amount of Rheb” value in series [5] is “increased the amount of Rheb”. The “4EBP1 phosphorylation (hyper- vs hypo-phosphorylated band)” value in series [6] (Cbz-B3A 10 μM, Cbz-acetyl 10 μM, rapamycin 20 nM) was “clear shift from hyper-phosphorylation to hypo-phosphorylation”.
